Measured values as given in US8481564B2, “Inhibitors of c-fms kinase” (Janssen Pharmaceutica, N.V., priority 2006, dated 2013).

Experiments:
[1] = system: mouse bone-marrow derived macrophages; experiment: CSF-1-driven mouse bone-marrow derived macrophages assay (BrDU incorporation); format: cell-based; details: BMDM; CSF-1 stimulated mouse bone-marrow derived macrophages, 30 hrs culture, BrDU incorporation ELISA; read-out: mCSF driven proliferation BMDM (Mouse)
Experimental: CSF-1-Driven Mouse Bone-Marrow Derived Macrophages Assay
Macrophages are derived by culturing mouse bone marrow in alpha-MEM supplemented with 10% FCS (fetal calf serum) and 50 ng/ml recombinant mouse CSF-1 in bacteriologic dishes. On the sixth day, macrophages are detached from dishes, washed, and resuspended to 0.1 million cells/ml in alpha-MEM containing 10% FCS. One hundred ul of cell suspension are distributed per well into 96 well culture plates. Wells are further supplemented with the addition of 50 ul media containing 15 ng/ml CSF-1, 3 uM Indomethacin, and 3× of a dilution series of test compounds. The cells are cultured for 30 hrs at 37° C. and 5% CO2. During the final six hours, cultures are supplemented with an additional 30 ul of media containing a 1:500 dilution of bromodeoxyuridine (BrDU). At the end of the culture period, the media is removed and replaced with […] of fixative solution for 30′@room temperature. The fixative is then dispelled from the plates and the plates allowed to air dry. Incorporation of BrDU into the fixed, dried cells is quantified using a specific ELISA (Cat X1327K) from Exalpha Corporation (Watertown Mass.). Background values are determined from wells without BrDU reagent. IC50 values are calculated based on signal from CSF-1 stimulated cells without compound present.

CSF-1R = CSF-1R (Homo sapiens (Human), UniProt P07333); experiment: Fluorescence polarization competition immunoassay (inhibition of CSF-1R phosphorylation of tyrosine on synthetic CSF-1R555-568 peptide); format: biochemical; details: CSF-1R fluorescence polarization assay; 0.7 nM CSF-1R, 1 mM ATP, 308 μM peptide; mean of at least three determinations
CSF-1R, sequence (P07333 20-972): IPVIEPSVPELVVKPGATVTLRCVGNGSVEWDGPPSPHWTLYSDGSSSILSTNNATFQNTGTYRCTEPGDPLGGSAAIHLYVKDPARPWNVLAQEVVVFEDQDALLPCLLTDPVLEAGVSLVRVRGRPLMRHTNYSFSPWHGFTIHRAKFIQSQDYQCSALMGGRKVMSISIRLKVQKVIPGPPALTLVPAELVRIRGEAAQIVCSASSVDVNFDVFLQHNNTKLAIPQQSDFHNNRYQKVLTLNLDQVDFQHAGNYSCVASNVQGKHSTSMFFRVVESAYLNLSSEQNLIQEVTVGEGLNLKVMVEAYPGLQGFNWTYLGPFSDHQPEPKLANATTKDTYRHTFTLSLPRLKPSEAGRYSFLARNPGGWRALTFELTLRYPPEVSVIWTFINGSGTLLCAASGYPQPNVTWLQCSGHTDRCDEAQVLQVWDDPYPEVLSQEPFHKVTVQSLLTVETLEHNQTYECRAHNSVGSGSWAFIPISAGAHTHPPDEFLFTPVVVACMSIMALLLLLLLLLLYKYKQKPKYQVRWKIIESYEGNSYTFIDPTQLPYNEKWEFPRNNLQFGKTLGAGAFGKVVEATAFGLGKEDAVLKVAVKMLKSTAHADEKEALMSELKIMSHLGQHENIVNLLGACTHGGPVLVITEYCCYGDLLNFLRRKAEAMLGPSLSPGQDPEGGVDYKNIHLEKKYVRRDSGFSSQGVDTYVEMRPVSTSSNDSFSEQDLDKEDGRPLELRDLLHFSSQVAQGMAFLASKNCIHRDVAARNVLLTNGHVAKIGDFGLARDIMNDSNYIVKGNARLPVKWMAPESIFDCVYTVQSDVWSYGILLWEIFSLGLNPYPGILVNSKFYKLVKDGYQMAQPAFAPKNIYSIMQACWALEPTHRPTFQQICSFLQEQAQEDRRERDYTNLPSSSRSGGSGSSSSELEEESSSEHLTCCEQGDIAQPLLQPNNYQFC
Experimental: Fluorescence Polarization Competition Immunoassay
The kinase reaction was initiated by adding 1 μL of 10 mM ATP in assay buffer. […] Positive and negative control wells were included on each plate, where 4% DMSO in assay buffer was substituted for the compound; in addition, positive control wells received 1.2 μL of 50 mM EDTA before the start of the reaction.
The plates were covered and incubated at room temperature for 80 min. Reactions were stopped by addition of 1.2 μL of 50 mM EDTA. […] The plates were covered, incubated for 30 min at room temperature, and the fluorescence polarization was read on an Analyst plate reader (Molecular Devices). […] Reported IC50 values are the mean of three of at least three determinations.

Structure (SMILES)	IC50 [1]	IC50 (CSF-1R)
CC1(C)CC=C(c2cc(C3CC(=O)NC(=O)C3)ccc2NC(=O)c2nc(C#N)c[nH]2)CC1 [Example 3, 4-Cyano-1H-imidazole-2-carboxylic acid [2-(4,4-dimethyl-cyclohex-1-enyl)-4-(2,6-dioxo-piperidin-4-yl)-phenyl]-amide]	0.007 µM	
N#Cc1c[nH]c(C(=O)Nc2cc(CO)c(C3CNS(=O)(=O)NC3)cc2C2=CCCCC2)n1 [Example 6, 4-Cyano-1H-imidazole-2-carboxylic acid [2-cyclohex-1-enyl-4-(1,1-dioxo-1λ^6-[1,2,6]thiadiazinan-4-yl)-5-hydroxymethyl-phenyl]-amide]	0.06 µM	0.01 µM
CN1CC(c2ccc(NC(=O)c3nc(C#N)c[nH]3)c(C3=CCC(C)(C)CC3)c2)CN(C)C1=O [Example 8, 4-Cyano-1H-imidazole-2-carboxylic acid [2-(4,4-dimethyl-cyclohex-1-enyl)-4-(1,3-dimethyl-2-oxo-hexahydro-pyrimidin-5-yl)-phenyl]-amide]	0.003 µM	
N#Cc1c[nH]c(C(=O)Nc2ccc(C3CNS(=O)(=O)NC3)cc2C2=CCCCC2)n1 [Example 5, 4-Cyano-1H-imidazole-2-carboxylic acid [2-cyclohex-1-enyl-4-(1,1-dioxo-1λ^6-[1,2,6]thiadiazinan-4-yl)-phenyl]-amide]	0.06 µM	
N#Cc1c[nH]c(C(=O)Nc2ccc(C3CC(=O)NC(=O)C3)cc2C2=CCCCC2)n1 [Example 1, 4-Cyano-1H-imidazole-2-carboxylic acid [2-cyclohex-1-enyl-4-(2,6-dioxo-piperidin-4-yl)-phenyl]-amide]	0.01 µM	
CS(=O)(=O)N=C1NCC(c2ccc(NC(=O)c3nc(C#N)c[nH]3)c(C3=CCCCC3)c2)CN1 (stereo not drawn) [Example 13, 4-Cyano-1H-imidazole-2-carboxylic acid[2-cyclohex-1-enyl-4(2methanesulfonylimino-hexahydro-pyrimidin-5-yl)-phenyl]-amide]	0.1 µM	0.002 µM
CN1CC(c2ccc(NC(=O)c3cc(C#N)c[nH]3)c(C3=CCCCCC3)c2)CN(C)C1=O [Example 10, 4-Cyano-1H-pyrrole-2-carboxylic acid [2-cyclohept-1-enyl-4-(1,3-dimethyl-2-oxo-hexahydro-pyrimidin-5-yl)-phenyl]-amide]	0.1 µM	
N#Cc1c[nH]c(C(=O)Nc2ccc(C3COC(=O)OC3)cc2C2=CCCCC2)n1 [Example 15, 4-Cyano-1H-imidazole-2-carboxylic acid[2-cyclohex-1-enyl-4-(2-oxo-[1,3]dioxan-5-yl)-phenyl]-amide]		> 0.3 µM
CN1CC(c2ccc(NC(=O)c3nc(C#N)c[nH]3)c(C3=CCCCCC3)c2)CN(C)C1=O [Example 9, 4-Cyano-1H-imidazole-2-carboxylic acid [2-cyclohept-1-enyl-4-(1,3-dimethyl-2-oxo-hexahydro-pyrimidin-5-yl)-phenyl]-amide]	0.005 µM	
CN1C(=O)CC(c2ccc(NC(=O)c3nc(C#N)c[nH]3)c(C3=CCCCC3)c2)CC1=O [Example 14, 4-Cyano-1H-imidazole-2-carboxylic acid[2-cyclohex-1-enyl-4-(1-methyl-2,6-dioxo-piperidin-4-yl)-phenyl]-amide]	0.004 µM	
N#CN=C1NCC(c2ccc(NC(=O)c3nc(C#N)c[nH]3)c(C3=CCCCC3)c2)CN1 (stereo not drawn) [Example 12, 4-Cyano-1H-imidazole-2-carboxylic acid[4-(2-cyanoimino-hexahydro-pyrimidin-5-yl)-2-cyclohex-1-enyl-phenyl]-amide]	0.04 µM	0.003 µM
CN1CC(c2ccc(NC(=O)c3nc(C#N)c[nH]3)c(C3=CCCCC3)c2)CN(C)S1(=O)=O [Example 11, 4-Cyano-1H-imidazole-2-carboxylic acid [2-cyclohex-1-enyl-4-(2,6-dimethyl-1,1-dioxo-1λ^6-[1,2,6]thiadiazinan-4-yl)-phenyl]-amide]	0.002 µM	
